Measured values as given in patent publication US20260200920A1, “SUBSTITUTED AMINOPYRIDINE COMPOUNDS FOR USE AS AKT1 INHIBITORS” (Atavistik Bio, Inc., priority 2023, published 2026).

Tests used:
[1] = biological target: T1, human recombinant kinase full-length wildtype AKT1 (Homo sapiens, UniProt P31749); assay: AKT1 kinase assay (wildtype, TR-FRET, Lance); assay type: biochemical; details: 0.6 nM wildtype AKT1, 50 nM Ulight-CREBtide, either 50 μM ATP or 2 mM ATP, 60 min at RT
T1 construct: Purified human recombinant kinase full-length wildtype AKT1 was expressed in insect cells; made in house; host or cells: insect cells
In short: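 Insect-cell-expressed full-length human AKT1, PDPK1-activated (0.6 nM), preincubated with compound 15 min at RT, then reacted 60 min at RT with 50 nM ULight-CREBtide and 50 μM or 2 mM ATP (pH 7.5, 1% DMSO). Phospho-CREBtide read by Eu-anti-phospho-Ser133 TR-FRET (665/620 ratio); IC50 from 10-point 4-parameter fit.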

[2] = biological target: T2, human recombinant kinase full-length AKT1 E17K (Homo sapiens, UniProt P31749, E17K); assay: AKT1 E17K kinase assay (TR-FRET, Lance); assay type: biochemical; details: 0.6 nM AKT1 E17K, 50 nM Ulight-CREBtide, either 50 μM ATP or 2 mM ATP, 60 min at RT
T2 construct: Purified human recombinant kinase full-length AKT1 E17K was expressed in insect cells; made in house; host or cells: insect cells
In short: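 Full-length AKT1 E17K from insect cells, PDPK1-activated, at 0.6 nM with 50 nM Ulight-CREBtide and 50 μM or 2 mM ATP, pH 7.5, 1% DMSO. Enzyme and compound preincubated 15 min, reaction run 60 min at RT; Eu-anti-phospho-CREB (Ser133) TR-FRET 665/620 ratio, 10-point curve, IC50 by 4-parameter fit.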

T1 sequence (P31749 whole entry): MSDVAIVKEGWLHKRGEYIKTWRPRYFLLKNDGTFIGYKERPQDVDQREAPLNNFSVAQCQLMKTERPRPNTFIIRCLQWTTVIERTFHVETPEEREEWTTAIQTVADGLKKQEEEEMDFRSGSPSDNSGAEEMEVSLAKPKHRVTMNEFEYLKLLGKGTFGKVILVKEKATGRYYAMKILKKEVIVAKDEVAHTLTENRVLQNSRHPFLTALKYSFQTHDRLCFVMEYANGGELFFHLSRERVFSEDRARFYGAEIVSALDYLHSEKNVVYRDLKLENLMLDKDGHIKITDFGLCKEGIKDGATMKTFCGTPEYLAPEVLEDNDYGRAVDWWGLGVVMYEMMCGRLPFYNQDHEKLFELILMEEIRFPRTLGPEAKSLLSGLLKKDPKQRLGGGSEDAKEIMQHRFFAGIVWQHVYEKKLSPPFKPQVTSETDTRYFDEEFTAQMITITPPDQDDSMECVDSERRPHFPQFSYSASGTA
T2 sequence (P31749 whole entry E17K): as the sequence (P31749 whole entry) above, with E17K counted along it

Compound | IC50 [1] [µM] | IC50 [2] [nM]
Cc1cc(C2CN(CC3CC4(C3)CC(C(=O)O)C4)C2)ccc1-n1c(-c2cccnc2N)nc2ccc(-c3ccccc3)cc21 (centres unmarked) [Compound I-224] | < 20 | ≥ 2000
Cc1nc(NC[C@@H]2CC[C@@H](C(=O)O)C2)ccc1-n1c(-c2cccnc2N)nc2ccc(-c3ccccc3)nc21 [Compound I-227] | < 20 | 500 to 2000
CC1(C)C[C@H](C(=O)O)CC[C@@H]1CN1CC(c2ccc(-n3c(-c4cccnc4N)nc4ccc(-c5ccccc5)nc43)cc2)C1 (stereo in doubt) [Compound I-144] | < 20 | < 500
CC(C)(NC1CCC(C(=O)O)CC1)c1ccc(-n2c(-c3cccnc3N)nc3ccc(-c4ccccc4)nc32)cc1 (centres unmarked) [Compound I-89, (1r,4r)-4-((2-(4-(2-(2-aminopyridin-3-yl)-5-phenyl-3H-imidazo[4,5-b]pyridin-3-yl)phenyl)propan-2-yl)amino)cyclohexane-1-carboxylic acid] | < 20 | ≥ 2000
NC(=O)N1CCC(C(=O)Nc2ccc(-n3c(-c4cccnc4N)nc4ccc(-c5ccccc5)nc43)cn2)CC1 [Compound I-122, N^4-(5-(2-(2-aminopyridin-3-yl)-5-phenyl-31-imidazo[4,5-b]pyridin-3-yl)pyridin-2-yl)piperidine-1,4-dicarboxamide] | < 20 | < 500
Nc1ncccc1-c1nc2ccc(-c3ccccc3)nc2n1-c1ccc(NC(=O)C2CCCC(C(=O)O)C2)nc1 (centres unmarked) [Compound I-11, 3-((5-(2-(2-aminopyridin-3-yl)-5-phenyl-3H-imidazo[4,5-b]pyridin-3-yl)pyridin-2-yl)carbamoyl)cyclohexane-1-carboxylic acid] | < 20 | < 500
NC(=O)C1CCC(CN2CC(c3ccc(-n4c(-c5cccnc5N)nc5ccc(-c6ccccc6)nc54)cc3)C2)CC1 (centres unmarked) [Compound I-140, 4-((3-(4-(2-(2-aminopyridin-3-yl)-5-phenyl-3H-imidazo[4,5-b]pyridin-3-yl)phenyl)azetidin-1-yl)methyl)cyclohexane-1-carboxamide] | < 20 | 500 to 2000
COc1ccccc1-c1ccc2nc(-c3cccnc3N)n(-c3ccc(NC(=O)[C@H]4CC[C@H](C(=O)O)CC4)nc3C)c2n1 [Compound I-220] | < 20 | 500 to 2000
Cc1cc(C2(C)CN(CC3CC4(C3)CC(C(=O)O)C4)C2)ccc1-n1c(-c2cccnc2N)nc2ccc(-c3ccccc3)nc21 (centres unmarked) [Compound I-157] | < 20 | 500 to 2000
Cc1c(-n2c(-c3cccnc3N)nc3ccc(-c4ccccc4)nc32)ccc(NC(=O)C2CC3(CC(C(=O)O)C3)C2)c1F (centres unmarked) [Compound I-101, 6-((4-(2-(2-aminopyridin-3-yl)-5-phenyl-3H-imidazo[4,5-b]pyridin-3-yl)-2-fluoro-3-methylphenyl)carbamoyl)spiro[3.3]heptane-2-carboxylic acid] | < 20 | ≥ 2000
Cc1ccccc1-c1ccc2nc(-c3cccnc3N)n(-c3ccc(C4CN(C[C@H]5CC[C@H](C(=O)O)CC5)C4)cc3)c2n1 [Compound I-212] | < 20 | 500 to 2000
Cc1nc(NC(=O)C2CCC(C)(C(=O)O)CC2)ccc1-n1c(-c2cccnc2N)nc2ccc(-c3ccccc3)nc21 (centres unmarked) [Compound I-128, 4-((5-(2-(2-aminopyridin-3-yl)-5-phenyl-3H-imidazo[4,5-b]pyridin-3-yl)-6-methylpyridin-2-yl)carbamoyl)-1-methylcyclohexane-1-carboxylic acid] | < 20 | 500 to 2000
Nc1ncccc1-c1nc2ccc(-c3ccccc3)nc2n1-c1ccc(NC(=O)C2CC3(CC(C(=O)O)C3)C2)cc1 (centres unmarked) [Compound I-46, 6-[[4-[2-(2-amino-3-pyridyl)-5-phenyl-imidazo[4,5-b]pyridin-3-yl]phenyl]carbamoyl]spiro[3.3]heptane-2-carboxylic acid] | < 20 | < 500
Nc1ncccc1-c1nc2ccc(-c3ccccc3)nc2n1-c1ccc(CN[C@H]2CC[C@H](C(=O)O)CC2)cc1 [Compound I-90, (1r,4r)-4-((4-(2-(2-aminopyridin-3-yl)-5-phenyl-3H-imidazo[4,5-b]pyridin-3-yl)benzyl)amino)cyclohexane-1-carboxylic acid] | < 20 | < 500
Nc1ncccc1-c1nc2ccc(-c3ccccc3)nc2n1-c1ccc(NCC2CC3(C2)CC(C(=O)O)C3)nc1 (centres unmarked) [Compound I-137, 6-(((5-(2-(2-aminopyridin-3-yl)-5-phenyl-3H-imidazo[4,5-b]pyridin-3-yl)pyridin-2-yl)amino)methyl)spiro[3.3]heptane-2-carboxylic acid] | < 20 | < 500
Nc1ncccc1-c1nc2ccc(-c3ccccc3)nc2n1-c1ccc(NC(=O)[C@H]2CC[C@H](C(=O)O)CC2)c(F)c1 [Compound I-6, (1r,4r)-4-((4-(2-(2-aminopyridin-3-yl)-5-phenyl-3H-imidazo[4,5-b]pyridin-3-yl)-2-fluorophenyl)carbamoyl)cyclohexane-1-carboxylic acid] | < 20 | 500 to 2000
Cc1nc(NC(=O)[C@H]2CC[C@H](C(=O)O)CC2)ccc1-n1c(-c2cccnc2N)nc2ccc(-c3ccc(F)cc3F)nc21 [Compound I-216] | < 20 | ≥ 2000
CN(Cc1ccc(-n2c(-c3cccnc3N)nc3ccc(-c4ccccc4)nc32)cc1)[C@H]1CC[C@H](C(=O)O)CC1 [Compound I-96, (1r,4r)-4-((4-(2-(2-aminopyridin-3-yl)-5-phenyl-3H-imidazo[4,5-b]pyridin-3-yl)benzyl)(methyl)amino)cyclohexane-1-carboxylic acid] | < 20 | < 500
CN(Cc1ccc(-n2c(-c3cccnc3N)nc3ccc(-c4ccccc4)nc32)cc1)[C@@H]1CC[C@@H](C(=O)O)C1 (stereo in doubt) [Compound I-171] | < 20 | < 500
Nc1ncccc1-c1nc2ccc(-c3ccccc3F)nc2n1-c1ccc([C@H]2CCN(C[C@H]3CC[C@H](C(=O)O)CC3)C2)cc1 (single isomer, unassigned) [Compound I-230] | < 20 | 500 to 2000
Nc1ncccc1-c1nc2ccc(-c3ccc(F)cc3)nc2n1-c1ccc(NC(=O)[C@H]2CC[C@H](C(=O)O)CC2)nc1 [Compound I-40, (1r,4r)-4-((5-(2-(2-aminopyridin-3-yl)-5-(4-fluorophenyl)-3H-imidazo[4,5-b]pyridin-3-yl)pyridin-2-yl)carbamoyl)cyclohexane-1-carboxylic acid] | < 20 | < 500
Nc1ncccc1-c1nc2ccc(-c3ccccc3F)nc2n1-c1ccc(C2CN(C[C@H]3CC[C@H](C(=O)O)CC3)C2)cc1 [Compound I-213] | < 20 | < 500
Nc1ncccc1-c1nc2ccc(-c3ccccc3)nc2n1-c1ccc(C2CN(C[C@H]3CC[C@@H](C(=O)O)CC3)C2)c(F)c1 [Compound I-63, (1s,4s)-4-((3-(4-(2-(2-aminopyridin-3-yl)-5-phenyl-3H-imidazo[4,5-b]pyridin-3-yl)-2-fluorophenyl)azetidin-1-yl)methyl)cyclohexane-1-carboxylic acid] | < 20 | 500 to 2000
CC(C)(N[C@@H]1CC[C@@H](C(=O)O)C1)c1ccc(-n2c(-c3cccnc3N)nc3ccc(-c4ccccc4)nc32)cc1 [Compound I-87, (1R,3R)-3-((2-(4-(2-(2-aminopyridin-3-yl)-5-phenyl-3H-imidazo[4,5-b]pyridin-3-yl)phenyl)propan-2-yl)amino)cyclopentane-1-carboxylic acid] | < 20 | ≥ 2000
Nc1ncccc1-c1nc2ccc(-c3ccccc3)nc2n1-c1ccc(NC[C@H]2CC[C@H](C(=O)O)CC2)nc1 [Compound I-43, (1r,4r)-4-(((5-(2-(2-aminopyridin-3-yl)-5-phenyl-3H-imidazo[4,5-b]pyridin-3-yl)pyridin-2-yl)amino)methyl)cyclohexane-1-carboxylic acid] | < 20 | < 500
CC(C)(C(=O)O)C1CCN(Cc2ccc(-n3c(-c4cccnc4N)nc4ccc(-c5ccccc5)nc43)cn2)CC1 [Compound I-135, 2-(1-((5-(2-(2-aminopyridin-3-yl)-5-phenyl-3H-imidazo[4,5-b]pyridin-3-yl)pyridin-2-yl)methyl)piperidin-4-yl)-2-methylpropanoic acid] | < 20 | ≥ 2000
Nc1ncccc1-c1nc2ccc(-c3ccccc3)nc2n1-c1ccc(C(=O)N[C@H]2CC[C@@H](C(=O)O)CC2)cc1 [Compound I-17, (1s,4s)-4-(4-(2-(2-aminopyridin-3-yl)-5-phenyl-3H-imidazo[4,5-b]pyridin-3-yl)benzamido)cyclohexane-1-carboxylic acid] | < 20 | 500 to 2000
CC1(C)CN(C(=O)c2ccc(-n3c(-c4cccnc4N)nc4ccc(-c5ccccc5)nc43)cn2)CCC1C(=O)O (centres unmarked) [Compound I-24, 1-(5-(2-(2-aminopyridin-3-yl)-5-phenyl-3H-imidazo[4,5-b]pyridin-3-yl)picolinoyl)-3,3-dimethylpiperidine-4-carboxylic acid] | < 20 | ≥ 2000
